# Assay results from patent publication US11446282B2, “Methods of treating mixed dyslipidemia and hypertriglycertdemia” (Kowa Company, Ltd., priority 2017, dated 2022).
# System: dyslipidemic patients with or without statin
# Assay: Example 4 pooled analysis of phase 2 and 3 studies: safety parameters
# Assay type: in vivo, human
# Protocol: The present study analyzed data combined from 6 randomized double-blind placebo-controlled studies that were conducted in Japan and continued for 12 weeks unless otherwise noted: a phase 2 study in 224 patients with a history of documented dyslipidemia and plasma TG of 200 mg/dL (2.26 mmol/L) or higher, randomized to placebo, pemafibrate 0.05, 0.1, 0.2, 0.4 mg/day, or fenofibrate 100 mg/day; a phase 3 study in 526 patients with dyslipidemia, high TG levels, and low HDL-C levels, randomized to placebo, pemafibrate 0.1, 0.2, or 0.4 mg/day, or fenofibrate 100 or 200 mg/day; a study in 188 patients with dyslipidemia, randomized to pitavastatin in combination with pemafibrate 0.1, 0.2, or 0.4 mg/day; a 24-week study in 423 patients with dyslipidemia, randomized to pemafibrate 0.2 mg/day (fixed dose) or 0.2 [0.4] mg/day (conditional up-titration) with any statin; a 24-week phase 3 study in 166 patients with type 2 diabetes and hypertriglyceridemia, randomized to placebo or pemafibrate 0.2 or 0.4 mg/day; and a study in 27 patients with hypertriglyceridemia and insulin resistance, randomized to pemafibrate 0.4 mg/day or placebo. All studies were approved by the Institutional Review Board for each study institution and were conducted in accordance with the Declaration of Helsinki and under the guidelines of Good Clinical Practice.
# In this study, we evaluated the efficacy and safety of pemafibrate at doses of 0.1 mg/day, 0.2 mg/day, and 0.4 mg/day, with and without statin. The primary efficacy endpoint was percent change in TG from baseline to 12 weeks. The secondary efficacy endpoints were also assessed from baseline to 12 weeks: percent change in HDL-C, LDL-C, non-HDL-C, TC, RemL-C, Apo AI, Apo AII, Apo B, Apo B48, Apo CII, Apo CIII, Apo CIII/Apo CII, and Apo E; percent change in HPLC findings for CM-C, VLDL-C, cholesterol content in 4 subclasses of LDL (large, medium, small, and very small LDLs), and cholesterol content for 5 subclasses of HDL (very large, large, medium, small, and very small HDLs); and changes in fibrinogen and FGF21. The primary safety endpoints were the incidence of adverse events and adverse drug reactions. Secondary safety endpoints were percentage of values above the upper limit of normal range for AST, ALT, sCr and CK, and change in sCr eGFR, CK, AST, ALT, gamma-glutamyl transferase (γ-GT), alkaline phosphatase (ALP), and total bilirubin.
# Patients with renal dysfunction were defined as those with baseline eGFR<60 mL/min/1.73 m^2. Analysis was stratified by the presence or absence of renal dysfunction in the concomitant statin group, and efficacy and safety of pemafibrate were evaluated. In efficacy and safety evaluations excluding AEs, ADRs, and cutoff values for AST, ALT, sCr, and CK, findings were combined for pemafibrate subgroups receiving doses of 0.1 mg/day, 0.2 mg/day, and 0.4 mg/day.
# For each lipid parameter, gel filtration HPLC was performed at Skylight Biotech, Inc. Other measurements were performed at LSI Medience Corporation. The FAS was used for analyzing efficacy parameters of effects on lipids, fibrinogen, and FGF21. The safety analysis set was used for safety parameters and included all patients who received at least one dose of the study drug. For lipid parameters, fibrinogen, and FGF21, LS means (95% confidence interval) were calculated at Week 12 (LOCF) using analysis of covariance (ANCOVA) with baseline values as the co-variable within each category. For safety parameters, LS means (95% confidence interval) were calculated at Week 12 using ANCOVA with baseline values as the co-variable within each category. SAS version 9.2 was used for analyses.
# [1] = Without Statin, 0.1 mg/day, n=82
# [2] = Without Statin, 0.2 mg/day, n=202
# [3] = Without Statin, 0.4 mg/day, n=173
# [4] = Without Statin, 0.4 mg/day, n=174
structure (smiles),measurement,setting,value
"CC[C@@H](Oc1cccc(CN(CCCOc2ccc(OC)cc2)c2nc3ccccc3o2)c1)C(=O)O [Pemafibrate, (2R)-2-[3-({1,3-benzoxazol-2-yl[3-(4-methoxyphenoxy)propyl]amino}methyl)phenoxy]butanoic acid]","ADE Leading to withdrawal, number of patients","With Statin, 0.1 mg/day, n=45",1
same,"ADE Leading to withdrawal, percentage of patients","With Statin, 0.1 mg/day, n=45",(2.2) percentage
same,"ADE Serious, number of patients","With Statin, 0.1 mg/day, n=45",0
same,"ADE Total, number of patients","With Statin, 0.1 mg/day, n=45",3
same,"ADE Total, percentage of patients","With Statin, 0.1 mg/day, n=45",(6.7) percentage
same,"AE Leading to withdrawal, number of patients","With Statin, 0.1 mg/day, n=45",2
same,"AE Leading to withdrawal, percentage of patients","With Statin, 0.1 mg/day, n=45",(4.4) percentage
same,"AE Serious, number of patients","With Statin, 0.1 mg/day, n=45",2
same,"AE Serious, percentage of patients","With Statin, 0.1 mg/day, n=45",(4.4) percentage
same,"AE Total, number of patients","With Statin, 0.1 mg/day, n=45",29
same,"AE Total, percentage of patients","With Statin, 0.1 mg/day, n=45",(64.4) percentage
same,"ALT ≥ ULN × 3, number of patients","With Statin, 0.1 mg/day, n=45",1
same,"ALT ≥ ULN × 3, percentage of patients","With Statin, 0.1 mg/day, n=45",(2.2) percentage
same,"AST ≥ ULN × 3, number of patients","With Statin, 0.1 mg/day, n=45",0
same,"CK ≥ 2.5 and < ULN × 5, number of patients","With Statin, 0.1 mg/day, n=45",2
same,"CK ≥ 2.5 and < ULN × 5, percentage of patients","With Statin, 0.1 mg/day, n=45",(4.4) percentage
same,"CK ≥ 5 and < ULN × 10, number of patients","With Statin, 0.1 mg/day, n=45",0
same,"CK ≥ ULN × 10, number of patients","With Statin, 0.1 mg/day, n=45",0
same,"sCr ≥ ULN, number of patients","With Statin, 0.1 mg/day, n=45",8
same,"sCr ≥ ULN, percentage of patients","With Statin, 0.1 mg/day, n=45",(17.8) percentage
same,"ADE Leading to withdrawal, number of patients","With Statin, 0.2 mg/day, n=382",11
same,"ADE Leading to withdrawal, percentage of patients","With Statin, 0.2 mg/day, n=382",(2.9) percentage
same,"ADE Serious, number of patients","With Statin, 0.2 mg/day, n=382",2
same,"ADE Serious, percentage of patients","With Statin, 0.2 mg/day, n=382",(0.5) percentage
same,"ADE Total, number of patients","With Statin, 0.2 mg/day, n=382",36
same,"ADE Total, percentage of patients","With Statin, 0.2 mg/day, n=382",(9.4) percentage
same,"AE Leading to withdrawal, number of patients","With Statin, 0.2 mg/day, n=382",12
same,"AE Leading to withdrawal, percentage of patients","With Statin, 0.2 mg/day, n=382",(3.1) percentage
same,"AE Serious, number of patients","With Statin, 0.2 mg/day, n=382",6
same,"AE Serious, percentage of patients","With Statin, 0.2 mg/day, n=382",(1.6) percentage
same,"AE Total, number of patients","With Statin, 0.2 mg/day, n=382",164
same,"AE Total, percentage of patients","With Statin, 0.2 mg/day, n=382",(42.9) percentage
same,"ALT ≥ ULN × 3, number of patients","With Statin, 0.2 mg/day, n=382",0
same,"AST ≥ ULN × 3, number of patients","With Statin, 0.2 mg/day, n=382",1
same,"AST ≥ ULN × 3, percentage of patients","With Statin, 0.2 mg/day, n=382",(0.3) percentage
same,"CK ≥ 2.5 and < ULN × 5, number of patients","With Statin, 0.2 mg/day, n=382",7
same,"CK ≥ 2.5 and < ULN × 5, percentage of patients","With Statin, 0.2 mg/day, n=382",(1.6) percentage
same,"CK ≥ 5 and < ULN × 10, number of patients","With Statin, 0.2 mg/day, n=382",3
same,"CK ≥ 5 and < ULN × 10, percentage of patients","With Statin, 0.2 mg/day, n=382",(0.6) percentage
same,"CK ≥ ULN × 10, number of patients","With Statin, 0.2 mg/day, n=382",1
same,"CK ≥ ULN × 10, percentage of patients","With Statin, 0.2 mg/day, n=382",(0.3) percentage
same,"sCr ≥ ULN, number of patients","With Statin, 0.2 mg/day, n=382",61
same,"sCr ≥ ULN, percentage of patients","With Statin, 0.2 mg/day, n=382",(16.0) percentage
same,"ADE Leading to withdrawal, number of patients","With Statin, 0.4 mg/day, n=72",0
same,"ADE Serious, number of patients","With Statin, 0.4 mg/day, n=72",0
same,"ADE Total, number of patients","With Statin, 0.4 mg/day, n=72",2
same,"ADE Total, percentage of patients","With Statin, 0.4 mg/day, n=72",(2.8) percentage
same,"AE Leading to withdrawal, number of patients","With Statin, 0.4 mg/day, n=72",0
same,"AE Serious, number of patients","With Statin, 0.4 mg/day, n=72",0
same,"AE Total, number of patients","With Statin, 0.4 mg/day, n=72",34
same,"AE Total, percentage of patients","With Statin, 0.4 mg/day, n=72",(47.2) percentage
same,"ALT ≥ ULN × 3, number of patients","With Statin, 0.4 mg/day, n=72",1
same,"ALT ≥ ULN × 3, percentage of patients","With Statin, 0.4 mg/day, n=72",(1.4) percentage
same,"AST ≥ ULN × 3, number of patients","With Statin, 0.4 mg/day, n=72",1
same,"AST ≥ ULN × 3, percentage of patients","With Statin, 0.4 mg/day, n=72",(1.4) percentage
same,"CK ≥ 2.5 and < ULN × 5, number of patients","With Statin, 0.4 mg/day, n=72",2
same,"CK ≥ 2.5 and < ULN × 5, percentage of patients","With Statin, 0.4 mg/day, n=72",(2.8) percentage
same,"CK ≥ 5 and < ULN × 10, number of patients","With Statin, 0.4 mg/day, n=72",0
same,"CK ≥ ULN × 10, number of patients","With Statin, 0.4 mg/day, n=72",0
same,"sCr ≥ ULN, number of patients","With Statin, 0.4 mg/day, n=72",11
same,"sCr ≥ ULN, percentage of patients","With Statin, 0.4 mg/day, n=72",(15.3) percentage
same,"ADE Leading to withdrawal, number of patients",[1],1
same,"ADE Leading to withdrawal, percentage of patients",[1],(1.2) percentage
same,"ADE Serious, number of patients",[1],0
same,"ADE Total, number of patients",[1],3
same,"ADE Total, percentage of patients",[1],(3.7) percentage
same,"AE Leading to withdrawal, number of patients",[1],2
same,"AE Leading to withdrawal, percentage of patients",[1],(2.4) percentage
same,"AE Serious, number of patients",[1],1
same,"AE Serious, percentage of patients",[1],(1.2) percentage
same,"AE Total, number of patients",[1],27
same,"AE Total, percentage of patients",[1],(32.9) percentage
same,"ALT ≥ ULN × 3, number of patients",[1],0
same,"AST ≥ ULN × 3, number of patients",[1],0
same,"CK ≥ 2.5 and < ULN × 5, number of patients",[1],2
same,"CK ≥ 2.5 and < ULN × 5, percentage of patients",[1],(2.4) percentage
same,"CK ≥ 5 and < ULN × 10, number of patients",[1],0
same,"CK ≥ ULN × 10, number of patients",[1],0
same,"sCr ≥ ULN, number of patients",[1],15
same,"sCr ≥ ULN, percentage of patients",[1],(18.3) percentage
same,"ADE Leading to withdrawal, number of patients",[2],2
same,"ADE Leading to withdrawal, percentage of patients",[2],(1.0) percentage
same,"ADE Serious, number of patients",[2],1
same,"ADE Serious, percentage of patients",[2],(0.5) percentage
same,"ADE Total, number of patients",[2],14
same,"ADE Total, percentage of patients",[2],(6.9) percentage
same,"AE Leading to withdrawal, number of patients",[2],3
same,"AE Leading to withdrawal, percentage of patients",[2],(1.5) percentage
same,"AE Serious, number of patients",[2],4
same,"AE Serious, percentage of patients",[2],(2.0) percentage
same,"AE Total, number of patients",[2],78
same,"AE Total, percentage of patients",[2],(38.6) percentage
same,"ALT ≥ ULN × 3, number of patients",[2],0
same,"AST ≥ ULN × 3, number of patients",[2],0
same,"CK ≥ 2.5 and < ULN × 5, number of patients",[2],3
same,"CK ≥ 2.5 and < ULN × 5, percentage of patients",[2],(1.5) percentage
same,"CK ≥ 5 and < ULN × 10, number of patients",[2],0
same,"CK ≥ ULN × 10, number of patients",[2],0
same,"sCr ≥ ULN, number of patients",[2],34
same,"sCr ≥ ULN, percentage of patients",[2],(16.8) percentage
same,"ALT ≥ ULN × 3, number of patients",[3],0
same,"AST ≥ ULN × 3, number of patients",[3],1
same,"AST ≥ ULN × 3, percentage of patients",[3],(0.6) percentage
same,"CK ≥ 2.5 and < ULN × 5, number of patients",[3],0
same,"CK ≥ 5 and < ULN × 10, number of patients",[3],1
same,"CK ≥ 5 and < ULN × 10, percentage of patients",[3],(0.6) percentage
same,"CK ≥ ULN × 10, number of patients",[3],1
same,"CK ≥ ULN × 10, percentage of patients",[3],(0.6) percentage
same,"sCr ≥ ULN, number of patients",[3],22
same,"sCr ≥ ULN, percentage of patients",[3],(12.7) percentage
same,"ADE Leading to withdrawal, number of patients",[4],3
same,"ADE Leading to withdrawal, percentage of patients",[4],(1.7) percentage
same,"ADE Serious, number of patients",[4],1
same,"ADE Serious, percentage of patients",[4],(0.6) percentage
same,"ADE Total, number of patients",[4],16
same,"ADE Total, percentage of patients",[4],(9.2) percentage
same,"AE Leading to withdrawal, number of patients",[4],6
same,"AE Leading to withdrawal, percentage of patients",[4],(3.4) percentage
same,"AE Serious, number of patients",[4],2
same,"AE Serious, percentage of patients",[4],(1.1) percentage
same,"AE Total, number of patients",[4],60
same,"AE Total, percentage of patients",[4],(34.5) percentage
